The results in this text go back to ChEMBL document CHEMBL4831503, “Design, synthesis, in vitro and in vivo anti-respiratory syncytial virus (RSV) activity of novel oxizine fused benzimidazole derivatives” (Eur J Med Chem, 2021).

The test system of data set [1] is Respiratory syncytial virus. The experiment in a line: Antiviral activity against RSV Long infected in BALB/c mouse assessed as inhibition of alveolar infiltrates accumulation at 25 to 100 mg/kg/day observed on day 6 after infection by H and E staining based microscopic analysis. The class given is functional, organism-based. The settings on record: dose 25-100 mg/kg/day, time 6.0 day.

The subject of data set [2] is Human orthopneumovirus. Kind of data set: Antiviral activity against Respiratory syncytial virus A2 infected in human HEp-2 cells assessed as reduction in viral infection incubated for 60 hrs by MTT assay. The class given is functional, organism-based. The note with it: A2, HEp-2, 60 h. (In general: Tetrazolium dyes change colour on reduction, which living cells bring about.)

The subject of data set [3] is Respiratory syncytial virus. The experiment in a line: Antiviral activity against RSV infected in human HEp-2 cells assessed as decrease in virus induced TBK1 gene expression measured after 48 hrs by RT-PCR analysis. Format: functional, organism-based.
For data set [4], the system named is Respiratory syncytial virus. The experiment in a line: Antiviral activity against Respiratory syncytial virus infected in human HEp-2 cells assessed as reduction in viral infection incubated for 60 hrs by MTT assay. Format: functional, organism-based. The settings on record: dose 3.125-50 µM.
For data set [5], the system named is Respiratory syncytial virus. The experiment in a line: Antiviral activity against RSV infected in BALB/c mouse assessed as downregulation of TLR3 expression in lung tissue infected with RSV at 25 to 100 mg/kg/day measured after 2 to 6 days post infection by RT-PCR analysis. The class given is functional, organism-based. The note with it: dose 25-100 mg/kg/day, time 2-6 day.

Data set [6] can be described thus: Selectivity index, ratio of CC50 for human HEp-2 cells to EC50 for Respiratory syncytial virus A2 infected in human HEp-2 cells. Format: toxicity, cell-based. The settings on record: read-out: Selectivity Index.
For data set [7], the system named is Respiratory syncytial virus. Kind of data set: Antiviral activity against RSV infected in human HEp-2 cells assessed as decrease in virus induced IFN-beta gene expression measured after 48 hrs by RT-PCR analysis. Format: functional, organism-based.
The subject of data set [8] is Respiratory syncytial virus. The experiment in a line: Antiviral activity against RSV infected in human HEp-2 cells assessed as decrease in virus induced NF-kappaB gene expression measured after 48 hrs by RT-PCR analysis. The class given is functional, organism-based.
Data set [9] has as its system Human orthopneumovirus. Kind of data set: Antiviral activity against Respiratory syncytial virus A2 infected in African green monkey Vero cells assessed as reduction in viral infection incubated for 60 hrs by MTT assay. The class given is functional, organism-based.
Data set [10] relates to Respiratory syncytial virus. The experiment in a line: Antiviral activity against RSV Long infected in BALB/c mouse assessed as reduction in lung tissue damage by measuring lung index at 25 to 100 mg/kg/day measured after 2 days of virus infection. Format: functional, organism-based. The settings on record: dose 25-100 mg/kg/day, time 2.0 day.
In data set [11] the test system is Respiratory syncytial virus. The experiment in a line: Antiviral activity against Respiratory syncytial virus Long infected in human HEp-2 cells assessed as reduction in viral infection up to 50 uM treated 2 hpi measured after 60 hrs by MTT assay. Format: functional, organism-based. The settings on record: dose microM <=50, time 60.0 hrs.
Data set [12] concerns Respiratory syncytial virus. The experiment in a line: Antiviral activity against RSV infected in human HEp-2 cells assessed as decrease in virus induced IRF3 gene expression measured after 48 hrs by RT-PCR analysis. The class given is functional, organism-based.
Data set [13] concerns Respiratory syncytial virus. Kind of data set: Inhibition of RSV induced apoptosis in human HEp-2 cells assessed as early apoptotic cells at 25 uM measured after 60 hrs by Annexin V-FITC/PI staining based flow cytometry analysis (reference value: 10.3%). Format: functional. More on the design: scale not given: the % may be the effect or the level left. For orientation: Flow cytometry measures light scatter and fluorescence of single cells or particles in a stream.

Data set [14] deals with Respiratory syncytial virus. Kind of data set: Antiviral activity against RSV infected in BALB/c mouse assessed as downregulation of IL-6 expression in lung tissue infected with RSV at 25 to 100 mg/kg/day measured after 2 days post infection by RT-PCR analysis. Format: functional, organism-based. The note with it: dose 25-100 mg/kg/day, time 2.0 day.
Data set [15] deals with Respiratory syncytial virus. The experiment in a line: Inhibition of RSV induced apoptosis in human HEp-2 cells assessed as reduction in cleaved caspase-3 expression measured after 60 hrs by Western blot analysis. Format: functional, organism-based. Background: Immunoblotting shows a protein as a band on a membrane.
For data set [16], the system named is Respiratory syncytial virus. The experiment in a line: Antiviral activity against RSV Long infected in BALB/c mouse assessed as reduction in lung tissue damage by measuring lung index at 25 to 100 mg/kg/day measured after 4 to 6 days of virus infection. The note with it: dose 25-100 mg/kg/day, time 4-6 day. The class given is functional, organism-based.
The test system of data set [17] is Respiratory syncytial virus. Kind of data set: Antiviral activity against Respiratory syncytial virus infected in human HEp-2 cells assessed as inhibition of viral replication at 25 uM treated up to 14 hpi and measured after 60 hrs by MTT assay. The class given is functional, organism-based.
The test system of data set [18] is Respiratory syncytial virus. Kind of data set: Inhibition of RSV induced apoptosis in human HEp-2 cells assessed as reversal of virus induced increase in Bax/Bcl-2 ratio at 25 to 50 uM measured after 36 hrs by Western blot analysis. Format: functional, organism-based. The settings on record: dose 25-50 µM.
Data set [19] deals with HEp-2. Kind of data set: Induction of apoptosis in human HEp-2 cells assessed as early apoptotic cells at 25 uM measured after 60 hrs by Annexin V-FITC/PI staining based flow cytometry analysis (reference value: 0.1%). Format: functional.
The test system of data set [20] is HEp-2. The experiment in a line: Inhibition of RSV induced autophagy flux in RSV-infected infected human HEP-2 cells by measuring p62 expression at 25 to 50 uM measured after 24 hrs by Western blot analysis. The settings on record: Respiratory syncytial virus, dose 25-50 µM. Format: functional, cell-based.
The nature of data set [21]: Selectivity index, ratio of CC50 for human HEp-2 cells to EC50 for Respiratory syncytial virus infected in human HEp-2 cells. Format: toxicity, cell-based. The note with it: read-out: Selectivity Index.
The subject of data set [22] is Respiratory syncytial virus. Kind of data set: Antiviral activity against RSV infected in BALB/c mouse assessed as downregulation of RIG-1 expression in lung tissue infected with RSV at 25 to 100 mg/kg/day measured after 2 to 4 days post infection by RT-PCR analysis. The note with it: dose 25-100 mg/kg/day, time 2-4 day. The class given is functional, organism-based.

Data set [23] relates to Respiratory syncytial virus. Kind of data set: Antiviral activity against RSV infected in BALB/c mouse assessed as downregulation of IRF3 expression in lung tissue infected with RSV at 25 to 100 mg/kg/day measured after 2 to 4 days post infection by RT-PCR analysis. The settings on record: dose 25-100 mg/kg/day, time 2-4 day. Format: functional, organism-based.
Data set [24] has as its system Respiratory syncytial virus. Kind of data set: Antiviral activity against RSV infected in human HEp-2 cells assessed as decrease in virus induced IL-6 gene expression measured after 48 hrs by RT-PCR analysis. Format: functional, organism-based.

Active and inactive are the calls of the source. The rule behind the calls is not given here.

For `Cc1c(Br)cc2nc3n(c2c1Br)[C@H]1OC[C@@H](O)[C@H]1OC3`, the outcome in [1], in data set [5], in data set [10], in data set [11], in [14] and in data set [16] was Active. The result (in [17]; in the data set on HEp-2 [20]; in data set [22]; in [23]) was Active. Moreover, the EC50 (as a rule, the concentration needed to bring the measured effect to its halfway point) with Human orthopneumovirus [2] stood at 12.8 µM; with Human orthopneumovirus [9] it was 15.5 µM. Further, the Activity result in data set [3] is “Dose-Dependent Effect”; in data set [4] it was “Dose-Dependent Effect”; in data set [7], “Dose-Dependent Effect”; in data set [8], “Dose-Dependent Effect”; in [12], “Dose-Dependent Effect”; in data set [13], 12%. Also, the Activity in the data set with HEp-2 [19] was 0.4%; in data set [24] it was “Dose-Dependent Effect”. Further, the selectivity ratio amounted to 19.6 in [6] and 26.4 in [21]. Further, the inhibition result in data set [15] and in data set [18] was “Active” in each case.
